Data as given in ChEMBL document CHEMBL1148993, “UV-mediated genotoxicity of furanoquinoline and of certain tryptophan-derived alkaloids” (J Nat Prod, 1983).
Counter-ions that a name gives are not always drawn.

Legend:
Escherichia coli [1] = experiment: Phototoxicity against Escherichia coli at 100 ug/disk after irradiation with W/m'2 UV light; format: functional; conditions: light or radiation study, read-out: IZ
Pseudomonas fluorescens [2] = experiment: Phototoxicity against Pseudomonas fluorescens at 100 ug/disk after irradiation with W/m'2 UV light; format: functional; conditions: light or radiation study, read-out: IZ
Bacillus subtilis [3] = experiment: Phototoxicity against Bacillus subtilis at 100 ug/disk in dark; format: functional; conditions: light or radiation study, read-out: IZ
Pseudomonas aeruginosa [4] = experiment: Phototoxicity against Pseudomonas aeruginosa at 100 ug/disk in dark; format: functional; conditions: light or radiation study, read-out: IZ
Saccharomyces cerevisiae [5] = experiment: Phototoxicity against Saccharomyces cerevisiae at 100 ug/disk in dark; format: functional; conditions: light or radiation study, read-out: IZ
Bacillus subtilis [6] = experiment: Phototoxicity against Bacillus subtilis at 100 ug/disk after irradiation with W/m'2 UV light; format: functional; conditions: light or radiation study, read-out: IZ
Candida albicans [7] = experiment: Phototoxicity against Candida albicans at 100 ug/disk after irradiation with W/m'2 UV light; format: functional; conditions: light or radiation study, read-out: IZ
Staphylococcus aureus [8] = experiment: Phototoxicity against Staphylococcus aureus at 100 ug/disk in dark; format: functional; conditions: light or radiation study, read-out: IZ
Saccharomyces cerevisiae [9] = experiment: Phototoxicity against Saccharomyces cerevisiae at 100 ug/disk after irradiation with W/m'2 UV light; format: functional; conditions: light or radiation study, read-out: IZ
Pseudomonas aeruginosa [10] = experiment: Phototoxicity against Pseudomonas aeruginosa at 100 ug/disk after irradiation with W/m'2 UV light; format: functional; conditions: light or radiation study, read-out: IZ
Enterococcus faecalis [11] = experiment: Phototoxicity against Streptococcus faecalis at 100 ug/disk in dark; format: functional; conditions: light or radiation study, read-out: IZ
Escherichia coli [12] = experiment: Phototoxicity against Escherichia coli at 100 ug/disk in dark; format: functional; conditions: light or radiation study, read-out: IZ
Enterococcus faecalis [13] = experiment: Phototoxicity against Streptococcus faecalis at 100 ug/disk after irradiation with W/m'2 UV light; format: functional; conditions: light or radiation study, read-out: IZ
Candida albicans [14] = experiment: Phototoxicity against Candida albicans at 100 ug/disk in dark; format: functional; conditions: light or radiation study, read-out: IZ
Staphylococcus aureus [15] = experiment: Phototoxicity against Staphylococcus aureus at 100 ug/disk after irradiation with W/m'2 UV light; format: functional; conditions: light or radiation study, read-out: IZ
Pseudomonas fluorescens [16] = experiment: Phototoxicity against Pseudomonas fluorescens at 100 ug/disk in dark; format: functional; conditions: light or radiation study, read-out: IZ
[17] = (§1) Genotoxicity in CHO cells assessed as mitotic inhibition at 0.62 ppm after 60 mins in dark followed by 5 W/m'2 UV irradiation for 30 mins; format: toxicity, cell-based, Cricetulus griseus; conditions: chinese hamster, CHO cells; read-out: Activity
Bacillus subtilis [18] = experiment: Phototoxicity against Bacillus subtilis at 10 ug/disk in dark; format: functional; conditions: light or radiation study, read-out: IZ
Staphylococcus aureus [19] = experiment: Phototoxicity against Staphylococcus aureus at 10 ug/disk in dark; format: functional; conditions: light or radiation study, read-out: IZ
Bacillus subtilis [20] = experiment: Phototoxicity against Bacillus subtilis at 10 ug/disk after irradiation with W/m'2 UV light; format: functional; conditions: light or radiation study, read-out: IZ
Pseudomonas fluorescens [21] = experiment: Phototoxicity against Pseudomonas fluorescens at 10 ug/disk in dark; format: functional; conditions: light or radiation study, read-out: IZ
CHO [22] = experiment: Genotoxicity in CHO cells assessed as chromosomal aberrations at 31.2 ppm after 60 mins in dark followed by 5 W/m'2 UV irradiation for 30 mins; format: toxicity, cell-based, Cricetulus griseus; conditions: chinese hamster, 0.5 h
Staphylococcus aureus [23] = experiment: Phototoxicity against Staphylococcus aureus at 10 ug/disk after irradiation with W/m'2 UV light; format: functional; conditions: light or radiation study, read-out: IZ
CHO [24] = experiment: Genotoxicity in CHO cells assessed as chromosomal aberrations at 125 ppm after 90 mins in dark; format: toxicity, cell-based, Cricetulus griseus; conditions: chinese hamster, 1.5 h
Pseudomonas aeruginosa [25] = experiment: Phototoxicity against Pseudomonas aeruginosa at 10 ug/disk after irradiation with W/m'2 UV light; format: functional; conditions: light or radiation study, read-out: IZ
CHO [26] = experiment: Genotoxicity in CHO cells assessed as chromosomal aberrations at 1.9 ppm after 60 mins in dark followed by 5 W/m'2 UV irradiation for 30 mins; format: toxicity, cell-based, Cricetulus griseus; conditions: chinese hamster, 0.5 h
Enterococcus faecalis [27] = experiment: Phototoxicity against Streptococcus faecalis at 10 ug/disk in dark; format: functional; conditions: light or radiation study, read-out: IZ
Enterococcus faecalis [28] = experiment: Phototoxicity against Streptococcus faecalis at 10 ug/disk after irradiation with W/m'2 UV light; format: functional; conditions: light or radiation study, read-out: IZ
Saccharomyces cerevisiae [29] = experiment: Phototoxicity against Saccharomyces cerevisiae at 10 ug/disk after irradiation with W/m'2 UV light; format: functional; conditions: light or radiation study, read-out: IZ
CHO [30] = experiment: Genotoxicity in CHO cells assessed as mitotic inhibition at 3.9 ppm after 60 mins in dark followed by 5 W/m'2 UV irradiation for 30 mins; format: toxicity, cell-based, Cricetulus griseus; conditions: chinese hamster, 0.5 h
Escherichia coli [31] = experiment: Phototoxicity against Escherichia coli at 10 ug/disk after irradiation with W/m'2 UV light; format: functional; conditions: light or radiation study, read-out: IZ
Escherichia coli [32] = experiment: Phototoxicity against Escherichia coli at 10 ug/disk in dark; format: functional; conditions: light or radiation study, read-out: IZ
CHO [33] = experiment: Genotoxicity in CHO cells assessed as chromosomal aberrations at 125 ppm after 60 mins in dark followed by 5 W/m'2 UV irradiation for 30 mins; format: toxicity, cell-based, Cricetulus griseus; conditions: chinese hamster, 0.5 h
CHO [34] = experiment: Genotoxicity in CHO cells assessed as chromosomal aberrations at 62.5 ppm after 60 mins in dark followed by 5 W/m'2 UV irradiation for 30 mins; format: toxicity, cell-based, Cricetulus griseus; conditions: chinese hamster, 0.5 h
Pseudomonas fluorescens [35] = experiment: Phototoxicity against Pseudomonas fluorescens at 10 ug/disk after irradiation with W/m'2 UV light; format: functional; conditions: light or radiation study, read-out: IZ
Candida albicans [36] = experiment: Phototoxicity against Candida albicans at 10 ug/disk in dark; format: functional; conditions: light or radiation study, read-out: IZ
CHO [37] = experiment: Genotoxicity in CHO cells assessed as chromosomal aberrations at 15.6 ppm after 60 mins in dark followed by 5 W/m'2 UV irradiation for 30 mins; format: toxicity, cell-based, Cricetulus griseus; conditions: chinese hamster, 0.5 h
Saccharomyces cerevisiae [38] = experiment: Phototoxicity against Saccharomyces cerevisiae at 10 ug/disk in dark; format: functional; conditions: light or radiation study, read-out: IZ
Candida albicans [39] = experiment: Phototoxicity against Candida albicans at 10 ug/disk after irradiation with W/m'2 UV light; format: functional; conditions: light or radiation study, read-out: IZ
CHO [40] = experiment: Genotoxicity in CHO cells assessed as chromosomal aberrations at 7.8 ppm after 60 mins in dark followed by 5 W/m'2 UV irradiation for 30 mins; format: toxicity, cell-based, Cricetulus griseus; conditions: chinese hamster, 0.5 h
Pseudomonas aeruginosa [41] = experiment: Phototoxicity against Pseudomonas aeruginosa at 10 ug/disk in dark; format: functional; conditions: light or radiation study, read-out: IZ
CHO [42] = experiment: Genotoxicity against CHO cells after UV irradiation; format: toxicity, cell-based, Cricetulus griseus; conditions: chinese hamster
CHO [43] = experiment: Genotoxicity against CHO cells; format: toxicity, cell-based, Cricetulus griseus; conditions: chinese hamster
CHO [44] = experiment: Genotoxicity in CHO cells assessed as chromosomal aberrations at 0.07 ppm after 60 mins in dark followed by 5 W/m'2 UV irradiation for 30 mins; format: toxicity, cell-based, Cricetulus griseus; conditions: chinese hamster, 0.5 h
CHO [45] = experiment: as §1; format: toxicity, cell-based, Cricetulus griseus; conditions: chinese hamster, cho, 0.5 h
CHO [46] = experiment: Genotoxicity in CHO cells assessed as mitotic inhibition at 0.31 ppm after 60 mins in dark followed by 5 W/m'2 UV irradiation for 30 mins; format: toxicity, cell-based, Cricetulus griseus; conditions: chinese hamster, 0.5 h

O=C1C[C@@H]2OCC=C3CN4CC[C@]56c7ccccc7N1[C@H]5[C@H]2[C@H]3C[C@H]46 [STRYCHNINE SULFATE]
zone of inhibition at 100 µg/disc (Escherichia coli [1]): 0 mm | zone of inhibition at 100 µg/disc (Pseudomonas fluorescens [2]): 0 mm | zone of inhibition at 100 µg/disc (Bacillus subtilis [3]): 0 mm | zone of inhibition at 100 µg/disc (Pseudomonas aeruginosa [4]): 0 mm | zone of inhibition at 100 µg/disc (Saccharomyces cerevisiae [5]): 0 mm | zone of inhibition at 100 µg/disc (Bacillus subtilis [6]): 0 mm | zone of inhibition at 100 µg/disc (Candida albicans [7]): 0 mm | zone of inhibition at 100 µg/disc (Staphylococcus aureus [8]): 0 mm | zone of inhibition at 100 µg/disc (Saccharomyces cerevisiae [9]): 0 mm | zone of inhibition at 100 µg/disc (Pseudomonas aeruginosa [10]): 0 mm | zone of inhibition at 100 µg/disc (Enterococcus faecalis [11]): 0 mm | zone of inhibition at 100 µg/disc (Escherichia coli [12]): 0 mm | zone of inhibition at 100 µg/disc (Enterococcus faecalis [13]): 0 mm | zone of inhibition at 100 µg/disc (Candida albicans [14]): 0 mm | zone of inhibition at 100 µg/disc (Staphylococcus aureus [15]): 0 mm | zone of inhibition at 100 µg/disc (Pseudomonas fluorescens [16]): 0 mm

Cc1nccc2c1[nH]c1ccccc12 [HARMANE HYDROCHLORIDE]
inhibition at 0.5 h, 0.62 ppm [17]: 0%

O=c1ccc2nccc3c4ccccc4n1c23 [CANTHIN-6-ONE]
zone of inhibition at 10 µg/disc (Bacillus subtilis [18]): 16 mm | zone of inhibition at 10 µg/disc (Staphylococcus aureus [19]): 0 mm | zone of inhibition at 10 µg/disc (Bacillus subtilis [20]): 8.6 mm | zone of inhibition at 10 µg/disc (Pseudomonas fluorescens [21]): 0 mm | Activity (CHO [22]): Toxic | zone of inhibition at 10 µg/disc (Staphylococcus aureus [23]): 10 mm | Activity (CHO [24]): 0% | zone of inhibition at 10 µg/disc (Pseudomonas aeruginosa [25]): 0 mm | Activity (CHO [26]): 22.2% | zone of inhibition at 10 µg/disc (Enterococcus faecalis [27]): 0 mm | zone of inhibition at 10 µg/disc (Enterococcus faecalis [28]): 0 mm | zone of inhibition at 10 µg/disc (Saccharomyces cerevisiae [29]): 13 mm | Activity (CHO [30]): Active | zone of inhibition at 10 µg/disc (Escherichia coli [31]): 7 mm | zone of inhibition at 10 µg/disc (Escherichia coli [32]): 0 mm | Activity (CHO [33]): Toxic | Activity (CHO [34]): Toxic | zone of inhibition at 10 µg/disc (Pseudomonas fluorescens [35]): 0 mm | zone of inhibition at 10 µg/disc (Candida albicans [36]): 9 mm | Activity (CHO [37]): Toxic | zone of inhibition at 10 µg/disc (Saccharomyces cerevisiae [38]): 9 mm | zone of inhibition at 10 µg/disc (Candida albicans [39]): 13 mm | Activity (CHO [40]): Toxic | zone of inhibition at 10 µg/disc (Pseudomonas aeruginosa [41]): 0 mm

O=C1C[C@@H]2OCC=C3CN4CC[C@]56c7ccccc7N1[C@H]5[C@H]2[C@H]3C[C@H]46 [STRYCHNINE]
Activity (CHO [42]): Not Active | Activity (CHO [43]): Not Active

CN1[C@@H]2CC[C@H]1C[C@@H](OC(=O)C(CO)c1ccccc1)C2 (stereo partly specified) [ATROPINE]
Activity (CHO [42]): Not Active | Activity (CHO [43]): Not Active

CN1[C@@H]2CC[C@H]1C[C@@H](OC(=O)C(CO)c1ccccc1)C2 (stereo partly specified) [ATROPINE SULFATE]
zone of inhibition at 100 µg/disc (Pseudomonas fluorescens [2]): 0 mm | zone of inhibition at 100 µg/disc (Pseudomonas aeruginosa [4]): 0 mm | zone of inhibition at 100 µg/disc (Saccharomyces cerevisiae [5]): 0 mm | zone of inhibition at 100 µg/disc (Bacillus subtilis [6]): 0 mm | zone of inhibition at 100 µg/disc (Candida albicans [7]): 0 mm | zone of inhibition at 100 µg/disc (Staphylococcus aureus [8]): 0 mm | zone of inhibition at 100 µg/disc (Saccharomyces cerevisiae [9]): 0 mm | zone of inhibition at 100 µg/disc (Pseudomonas aeruginosa [10]): 0 mm | zone of inhibition at 100 µg/disc (Enterococcus faecalis [11]): 0 mm | zone of inhibition at 100 µg/disc (Enterococcus faecalis [13]): 0 mm | zone of inhibition at 100 µg/disc (Candida albicans [14]): 0 mm | zone of inhibition at 100 µg/disc (Staphylococcus aureus [15]): 0 mm | zone of inhibition at 100 µg/disc (Pseudomonas fluorescens [16]): 0 mm

COc1ccc2[nH]c3c(c2c1)CCN=C3C
Activity (CHO [44]): 0% | Activity (CHO [45]): Toxic | Activity (CHO [46]): Active
